# Results published in article PMC6017062, “Probing the Inhibitor versus Chaperone Properties of sp^2-Iminosugars towards Human β-Glucocerebrosidase: A Picomolar Chaperone for Gaucher Disease” (Molecules : A Journal of Synthetic Chemistry and Natural …, 2018).
# Substitutions are numbered along the chain they refer to.
# Key:
# [1] = target: T1, N188S/G183W mutant GCase (Homo sapiens, UniProt P04062, N227S); test: Chaperone test in N188S/G183W type 3 Gaucher patient fibroblasts; format: cell-based
# T1 construct: endogenous in cells; host or cells: skin fibroblasts of N188S/G183W type 3 Gaucher patients
# T1 sequence (P04062 40-536 N227S): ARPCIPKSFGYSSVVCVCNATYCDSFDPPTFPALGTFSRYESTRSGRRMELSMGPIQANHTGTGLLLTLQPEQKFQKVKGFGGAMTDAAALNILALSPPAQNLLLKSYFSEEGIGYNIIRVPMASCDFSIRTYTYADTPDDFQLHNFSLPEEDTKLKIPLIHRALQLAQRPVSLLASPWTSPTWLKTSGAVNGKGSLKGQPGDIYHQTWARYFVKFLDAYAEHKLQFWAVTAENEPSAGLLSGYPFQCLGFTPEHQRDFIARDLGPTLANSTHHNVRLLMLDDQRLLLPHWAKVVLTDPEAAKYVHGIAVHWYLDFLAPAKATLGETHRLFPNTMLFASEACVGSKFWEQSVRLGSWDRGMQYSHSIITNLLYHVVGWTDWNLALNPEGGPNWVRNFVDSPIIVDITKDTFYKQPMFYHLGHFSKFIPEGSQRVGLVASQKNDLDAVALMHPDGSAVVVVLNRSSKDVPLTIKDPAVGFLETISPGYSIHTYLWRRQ
# Excerpt: To test the chaperoning capabilities, Gaucher fibroblasts from patients hosting the adult neuronopathic (type 3) Gaucher disease-associated N188S/G183W mutant GCase were employed. It is worth mentioning that the neuronopathic clinical subtypes of Gaucher disease remain currently at orphan status, given the inability of the recombinant enzyme used in enzyme replacement therapy or the glucosylceramide synthase inhibitor Zavesca® used in substrate reduction therapy to cross the blood–brain barrier. This mutation is located in the catalytic domain (domain III) of GCase and has been previously found to be responsive to sp^2-iminosugar-type chaperones. […] Yet, the activity trend as a function of the chaperone concentration was starkly different between them. Thus, the nonreducing representatives 3 and 4 reached the maximum chaperoning effect at 200 nM and as low as 2 nM concentration, respectively, as compared with 20 and 2 μM for the reducing homologues 1 and 2.
# (§1) Normal and Gaucher disease patients’ skin fibroblasts were cultured in Dulbecco modified Eagle’s medium (WAKO, Richmond, VA, USA) supplemented with 10% fetal bovine serum (Nichirei Biosci. Inc., Tokyo, Japan) at 37 °C in 5% CO2. For measurement of chaperone activities, fibroblasts were plated onto 35 mm dishes at 50,000 cells per dish. After 24 h incubation, the medium with the indicated concentrations of compound was applied and cells were cultured for 96 h. Then, the lysates in 0.1% Triton-X100/distilled H2O were collected from the cells and assayed for lysosomal GCase as described above. To measure the cytotoxic effect of the compounds, normal human fibroblasts were plated onto 35 mm dishes at 15,000 cells per dish and incubated overnight. Then, the medium was changed with or without compounds. After 24 h incubation, the supernatant of the cells was collected and measured by the lactate dehydrogenase assay (WAKO, Richmond, VA, USA). All the cell lines used were tested for mycoplasma contamination before conducting the chaperone and toxicity assays.
# [2] = target: T2, β-galactosidase (β-Galase) (Escherichia coli, UniProt P00722); test: Commercial glycosidase inhibition: β-galactosidase from E. coli (β-Galase); format: biochemical; settings: mean ± SD, three determinations; competitive; n.i. = no inhibition detected at 1 mM
# T2 construct: purchased
# T2 sequence (P00722 2-1024 limits assumed): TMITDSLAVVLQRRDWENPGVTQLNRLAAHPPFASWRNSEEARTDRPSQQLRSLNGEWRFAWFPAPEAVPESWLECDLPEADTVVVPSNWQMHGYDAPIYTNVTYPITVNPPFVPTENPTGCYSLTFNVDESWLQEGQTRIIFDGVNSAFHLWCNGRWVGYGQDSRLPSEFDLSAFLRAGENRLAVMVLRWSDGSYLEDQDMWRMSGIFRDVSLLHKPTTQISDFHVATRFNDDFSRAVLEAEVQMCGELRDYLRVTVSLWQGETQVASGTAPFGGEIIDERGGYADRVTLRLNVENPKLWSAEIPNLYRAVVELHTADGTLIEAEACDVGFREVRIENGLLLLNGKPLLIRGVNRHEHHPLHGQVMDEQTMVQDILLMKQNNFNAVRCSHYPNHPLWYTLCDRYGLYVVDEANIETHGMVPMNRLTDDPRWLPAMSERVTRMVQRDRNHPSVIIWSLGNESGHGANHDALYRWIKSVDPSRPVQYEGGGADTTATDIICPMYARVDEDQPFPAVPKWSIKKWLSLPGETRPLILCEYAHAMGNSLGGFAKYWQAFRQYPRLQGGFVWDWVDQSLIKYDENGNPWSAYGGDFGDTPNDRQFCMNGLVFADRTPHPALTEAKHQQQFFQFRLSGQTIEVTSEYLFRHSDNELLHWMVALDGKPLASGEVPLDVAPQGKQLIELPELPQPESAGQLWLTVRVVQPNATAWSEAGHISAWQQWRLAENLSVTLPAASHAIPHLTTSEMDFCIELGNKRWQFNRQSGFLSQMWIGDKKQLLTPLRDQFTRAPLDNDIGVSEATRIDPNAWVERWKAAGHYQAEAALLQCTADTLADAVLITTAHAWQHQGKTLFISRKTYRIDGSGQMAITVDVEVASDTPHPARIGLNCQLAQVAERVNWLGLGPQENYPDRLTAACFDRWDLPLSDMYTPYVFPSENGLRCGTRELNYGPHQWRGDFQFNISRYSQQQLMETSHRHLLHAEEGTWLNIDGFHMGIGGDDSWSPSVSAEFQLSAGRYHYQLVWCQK
# Excerpt: (§2) We first evaluated the inhibitory properties of the new nonreducing mono- and bicyclic sp^2-iminosugars 4–15 against a panel of commercial glycosidases that included the α-glucosidases maltase (yeast maltase; α-Glcase1) and isomaltase (α-Glcase2) from Saccharomyces cerevisiae and amyloglucosidase (α-Glcase3) from Aspergillus niger, the β-glucosidases from almonds (β-Glcase1) and bovine liver (β-Glcase2), the α-galactosidase from green coffee beans (α-Galase), the β-galactosidase from Escherichia coli (β-Galase), and the α-mannosidase from Jack bean (α-Manase).
# (§3) Inhibition constant (Ki) values were determined by spectrophotometrically measuring the residual hydrolytic activities of the glycosidases against the respective o- (for β-galactosidase from E. coli) or p-nitrophenyl α- or β-D-glycopyranoside (for other glycosidases) in the presence of the iminosugars. Each assay was performed in phosphate buffer or phosphate-citrate buffer (for α- or β-mannosidase and amyloglucosidase) at the optimal pH for the enzymes. The reactions were initiated by addition of the enzyme to a solution of the substrate in the absence or presence of various inhibitor concentrations. The mixture was incubated for 10–30 min at 37 °C or 55 °C (for amyloglucosidase) and the reaction was quenched by addition of 1 M Na2CO3. Reaction times were appropriate to obtain 10–20% conversion of the substrate in order to achieve linear rates. The absorbance of the resulting mixture was determined at 405 nm. Approximate value of Ki was determined from the slope of Dixon plots using a fixed concentration of substrate (around the Km value for the different glycosidases) and various concentrations of inhibitor. Full Ki determinations and enzyme inhibition mode were determined from the slope of Lineweaver–Burk plots and double reciprocal analysis.
# [3] = target: T3, GCase (Homo sapiens, UniProt P04062); test: GCase activity in cultured healthy human fibroblasts; format: cell-based
# T3 construct: endogenous in cells; host or cells: normal human skin fibroblasts
# T3 sequence (P04062 40-536): T1 sequence (P04062 40-536 N227S) with S188N
# Method: For that purpose, cells were cultured for 5 days in the absence and in the presence of various concentrations of the compounds, then lysed, and the enzyme activity was determined using 4-methylumbelliferyl β-D-glucopyranoside as substrate. Higher GCase activities in the lysate indicate that larger amounts of the protein are present and that it is functional.
# as §1
# [4] = target: β-glucosidase from almonds (β-Glcase1); test: Commercial glycosidase inhibition: β-glucosidase from almonds (β-Glcase1); format: biochemical; settings: mean ± SD, three determinations; competitive; n.i. = no inhibition detected at 1 mM
# Excerpt: as §2, §3
# [5] = target: T4, α-galactosidase from green coffee beans (α-Galase) (Coffea arabica, UniProt Q42656); test: Commercial glycosidase inhibition: α-galactosidase from green coffee beans (α-Galase); format: biochemical; settings: mean ± SD, three determinations; competitive; n.i. = no inhibition detected at 1 mM
# T4 construct: purchased
# T4 sequence (Q42656 16-378): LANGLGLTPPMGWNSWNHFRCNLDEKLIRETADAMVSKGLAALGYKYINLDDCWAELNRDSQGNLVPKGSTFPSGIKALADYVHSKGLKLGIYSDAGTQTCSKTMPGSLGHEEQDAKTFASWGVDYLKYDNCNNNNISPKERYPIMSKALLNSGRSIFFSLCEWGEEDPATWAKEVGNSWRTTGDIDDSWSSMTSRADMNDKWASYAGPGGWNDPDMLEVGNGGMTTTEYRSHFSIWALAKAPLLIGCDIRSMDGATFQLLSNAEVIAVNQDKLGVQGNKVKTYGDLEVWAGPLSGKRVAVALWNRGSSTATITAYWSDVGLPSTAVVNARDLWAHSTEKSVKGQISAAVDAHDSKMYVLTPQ
# Excerpt: as §2, §3
# [6] = pKa determination; format: physicochemical
# [7] = N188S/G183W Gaucher fibroblasts
compound,measurement,setting,value
"CCCCCCCCN=C1SCC2C(O)C(O)C(O)CN12 (stereo not drawn) [Compound 4, 1-Deoxy-6-thio-5-N,6-S-(N′-octyliminomethylidene)nojirimycin]",N188S/G183W GCase activity enhancement at 20 pM,"[1]; 20 pM, patient fibroblasts",over 70%
same,N188S/G183W GCase activity enhancement at 2 nM,"[1]; 2 nM, patient fibroblasts",300%
same,concentration of maximum chaperoning effect,[1]; [7],2 nM
same,concentration over which chaperone/inhibitor balance is unfavorable (net decrease in mutant enzyme activity vs control),[1]; [7],> 0.2 µM
same,Ki β-Galase,[2],n.i.
same,GCase activity in lysates of healthy human fibroblasts at higher concentrations,[3],significantly inhibited
same,GCase activity in lysates of healthy human fibroblasts at 20 μM,"[3]; 20 μM, 5 days culture",virtually full inhibition
same,Ki,[4],45 nM
same,Ki α-Galase,[5],n.i.
same,pKa,[6],8.3
